These results are taken from patent US8716292B2, “Riminophenazines with 2-(heteroaryl)amino substituents and their anti-microbial activity” (priority 2010, dated 2014).

Molecules are shown by their SMILES. In brackets after ≈: the same amount, converted by molar mass.

The subject of one assay is Mycobacterium tuberculosis H37Rv strains. Put plainly: In vitro assay for antimicrobial susceptibility (microplate Alamar blue MIC). Type of assay: cell-based. The following applies: Mycobacterium tuberculosis, H37RV, 7H9, Alamar blue, inhibition ≧90%; read-out: MIC (μg/mL) against H37Rv.
In the case of `O=[N+]([O-])c1cccnc1Nc1cc2nc3ccccc3n(-c3ccc(F)cc3)c-2c/c1=N\C1CCOCC1` [TBI-1088, 5-(4-Fluorophenyl)-3-(4-tetrahydropyranyl)imino-2-(3-nitro-2-pyridyl)amino-3,5-dihydrophenazine], the MIC is 0.028 µg/mL (≈ 0.0548 µM).

As for `CC(C)/N=c1\cc2n(-c3ccc(F)cc3)c3ccccc3nc-2cc1Nc1ncccc1[N+](=O)[O-]` [TBI-1052, 5-(4-Fluorophenyl)-3-(1-methylethyl)imino-2-(3-nitro-2-pyridyl)amino-3,5-dihydrophenazine], the MIC is 0.022 µg/mL (≈ 0.047 µM). Same read-out and setting: under `Clc1ccc(-n2c3c/c(=N\C4CCOCC4)c(Nc4ncccn4)cc-3nc3ccccc32)cc1` [TBI-860, 5-(4-Chlorophenyl)-3-(4-tetrahydropyranyl)imino-2-(pyrimidin-2-yl)amino-3,5-dihydrophenazine] stands 0.029 µg/mL (≈ 0.06 µM).

The assay is the same for the next values; noted with them: Mycobacterium tuberculosis, H37RV, in vitro, Mycobacterium tuberculosis H37Rv strains; read-out: MIC (μg/mL) against H37Rv.
As to `COc1ccc2nc3cc(Nc4ccc(C)nc4)/c(=N/C4CC4)cc-3n(-c3ccc(Cl)cc3)c2c1` [TBI-868, 7-Methoxy-5-(4-chlorophenyl)-3-cyclopropylimino-2-(6-methyl-3-pyridyl)amino-3,5-dihydrophenazine], the MIC came to 0.028 µg/mL (≈ 0.0581 µM). Still for that read-out and setting: under `COc1ncccc1Nc1cc2nc3ccccc3n(-c3ccc(C(F)(F)F)cc3)c-2c/c1=N\C1CCCCC1` [TBI-710, 5-(4-Trifluoromethylphenyl)-3-cyclohexylimino-2-(2-methoxy-3-pyridyl)amino-3,5-dihydrophenazine] stands 0.03 µg/mL (≈ 0.0552 µM); under `Cc1ccc(Nc2cc3nc4ccccc4n(-c4ccc(Cl)cc4)c-3c/c2=N\CCN2CCOCC2)cn1` [TBI-445, 5-(4-Chlorophenyl)-3-(2-morpholinoethyl)imino-2-(6-methyl-3-pyridyl)amino-3,5-dihydrophenazine], 0.076 µg/mL (≈ 0.145 µM). On the same count and under the same terms, to `COc1ncccc1Nc1cc2nc3ccccc3n(-c3ccccc3)c-2c/c1=N\C1CCN(C)CC1` [TBI-062, 5-Phenyl-3-(N-methyl-4-piperidyl)imino-2-(2-methoxy-3-pyridyl)amino-3,5-dihydrophenazine] belongs 0.061 µg/mL (≈ 0.124 µM); to `CN1CCC(/N=c2\cc3n(-c4ccc(F)cc4)c4ccccc4nc-3cc2Nc2cccnc2)CC1` [TBI-682], 0.25 µg/mL (≈ 0.522 µM); to `Cc1ccc(-n2c3c/c(=N\C4CCOCC4)c(Nc4ccc(C)nc4)cc-3nc3ccccc32)cc1` [TBI-317, 5-(4-Methylphenyl)-3-(4-tetrahydropyranyl)imino-2-(6-methyl-3-pyridyl)amino-3,5-dihydrophenazine], 0.055 µg/mL (≈ 0.116 µM).

In the case of `COc1ncccc1Nc1cc2nc3ccccc3n(-c3ccc(Cl)cc3)c-2c/c1=N\C1CCCCC1` [TBI-451], the MIC came to 0.057 µg/mL (≈ 0.112 µM). Consider `Cc1ccncc1Nc1cc2nc3ccccc3n(-c3ccc(F)cc3)c-2c/c1=N\C1CC1` [TBI-940, 5-(4-Fluorophenyl)-3-cyclopropylimino-2-(4-methyl-3-pyridyl)amino-3,5-dihydrophenazine], for which the MIC is 0.062 µg/mL (≈ 0.142 µM). The same measure, in the same setting: under `COc1ncccc1Nc1cc2nc3ccccc3n(-c3ccccc3OC(F)(F)F)c-2c/c1=N\C1CCC(OC)CC1` (stereo not drawn) [TBI-1044, 5-(2-Trifluoromethoxyphenyl)-3-(4-methoxycyclohexyl)imino-2-(2-methoxy-3-pyridyl)amino-3,5-dihydrophenazine] stands 0.25 µg/mL (≈ 0.424 µM). Same read-out and setting: under `COC1CCC(/N=c2\cc3n(-c4ccc(Cl)c(Cl)c4)c4ccccc4nc-3cc2Nc2cccnc2)CC1` (stereo not drawn) [TBI-352, 5-(3,4-Dichlorophenyl)-3-(4-methoxycyclohexyl)imino-2-(3-pyridyl)amino-3,5-dihydrophenazine] stands 0.096 µg/mL (≈ 0.176 µM); under `COc1ncccc1Nc1cc2nc3ccc(F)cc3n(-c3ccc(OC(F)(F)F)cc3)c-2c/c1=N\C(C)C` [TBI-858, 7-Fluoro-5-(4-trifluoromethoxyphenyl)-3-(1-methylethyl)imino-2-(2-methoxy-3-pyridyl)amino-3,5-dihydrophenazine], 0.08 µg/mL (≈ 0.149 µM); under `Clc1ccc(-n2c3c/c(=N\C4CC4)c(Nc4cccnc4)cc-3nc3ccccc32)c(Cl)c1` [TBI-367, 5-(2,4-Dichlorophenyl)-3-cyclopropylimino-2-(3-pyridyl)amino-3,5-dihydrophenazine], 0.023 µg/mL (≈ 0.0487 µM). Still for that read-out and setting: to `FC(F)(F)Oc1cccc(-n2c3c/c(=N\C4CCC4)c(Nc4cccnc4)cc-3nc3ccccc32)c1` [TBI-1027, 5-(3-Trifluoromethoxyphenyl)-3-cyclobutylimino-2-(3-pyridyl)amino-3,5-dihydrophenazine] belongs 0.383 µg/mL (≈ 0.764 µM). Consider `CC(=O)Nc1ccc(Nc2cc3nc4ccccc4n(-c4ccc(F)cc4)c-3c/c2=N\C2CCOCC2)cn1` [TBI-911, 5-(4-Fluorophenyl)-3-(4-tetrahydropyranyl)imino-2-(6-acetamino-3-pyridyl)amino-3,5-dihydrophenazine], for which the MIC was found to be 0.36 µg/mL (≈ 0.689 µM). Still for that read-out and setting: to `COc1ncccc1Nc1cc2nc3ccccc3n(-c3ccc(F)c(F)c3)c-2c/c1=N\C1CCC1` [TBI-530, 5-(3,4-Difluorophenyl)-3-cyclobutylimino-2-(2-methoxy-3-pyridyl)amino-3,5-dihydrophenazine] belongs 0.04 µg/mL (≈ 0.0827 µM). On the same count and under the same terms, to `COc1ncccc1Nc1cc2nc3ccccc3n(-c3ccc(F)cc3)c-2c/c1=N\C1CCOCC1` [TBI-1003, 5-(4-Fluorophenyl)-3-(4-tetrahydropyranyl)imino-2-(2-methoxy-3-pyridyl)amino-3,5-dihydrophenazine] belongs 0.039 µg/mL (≈ 0.0787 µM); to `Cc1ccc(Nc2cc3nc4ccccc4n(-c4ccccc4)c-3c/c2=N\C2CCN(C)CC2)cn1` [TBI-069, 5-Phenyl-3-(N-methyl-4-piperidyl)imino-2-(6-methyl-3-pyridyl)amino-3,5-dihydrophenazine], 0.219 µg/mL (≈ 0.461 µM); to `CC(C)CN1CCC(/N=c2\cc3n(-c4ccccc4)c4ccccc4nc-3cc2Nc2cccnc2)CC1` [TBI-057, 5-phenyl-3-(N-isobutyl-4-piperidyl)imino-2-(3-pyridyl)amino-3,5-dihydrophenazine], 0.125 µg/mL (≈ 0.249 µM). The same measure, in the same setting: under `Cc1ccc(Nc2cc3nc4ccccc4n(-c4ccccc4)c-3c/c2=N\C2CCCCC2)cn1` [TBI-080, 5-Phenyl-3-cyclohexylimino-2-(6-methyl-3-pyridyl)amino-3,5-dihydrophenazine] stands 0.243 µg/mL (≈ 0.529 µM). As to `COC1CCC(/N=c2\cc3n(-c4ccc(Cl)cc4)c4ccc(F)cc4nc-3cc2Nc2ccc(C)nc2)CC1` (stereo not drawn) [TBI-938, 8-Fluoro-5-(4-chlorophenyl)-3-(4-methoxycyclohexyl)imino-2-(6-methyl-3-pyridyl)amino-3,5-dihydrophenazine], the MIC came out at 0.125 µg/mL (≈ 0.231 µM).

On to `Cc1cncc(Nc2cc3nc4ccccc4n(-c4ccccc4)c-3c/c2=N\C(C)C)c1` [TBI-081, 5-Phenyl-3-(1-methylethyl)imino-2-(5-methyl-3-pyridyl)amino-3,5-dihydrophenazine], for which the MIC was 0.117 µg/mL (≈ 0.279 µM). Still for that read-out and setting: to `Cc1ccc(Nc2cc3nc4ccc(F)cc4n(-c4ccc(Cl)cc4)c-3c/c2=N\C(C)C)cn1` [TBI-914, 7-Fluoro-5-(4-chlorophenyl)-3-(1-methylethyl)imino-2-(6-methyl-3-pyridyl)amino-3,5-dihydrophenazine] belongs more than 0.5 µg/mL. Consider `CC(C)/N=c1\cc2n(-c3ccc(F)c(F)c3)c3ccccc3nc-2cc1Nc1cccnc1` [TBI-525, 5-(3,4-Difluorophenyl)-3-(1-methylethyl)imino-2-(3-pyridyl)amino-3,5-dihydrophenazine], for which the MIC was 0.058 µg/mL (≈ 0.131 µM). Same read-out and setting: under `COc1ncccc1Nc1cc2nc3ccccc3n(-c3ccc(Cl)c(Cl)c3)c-2c/c1=N\C1CCOCC1` [TBI-361, 5-(3,4-Dichlorophenyl)-3-(4-tetrahydropyranyl)imino-2-(2-methoxy-3-pyridyl)amino-3,5-dihydrophenazine] stands 0.08 µg/mL (≈ 0.146 µM); under `COc1ncccc1Nc1cc2nc3cc(F)ccc3n(-c3ccc(OC(F)(F)F)cc3)c-2c/c1=N\C1CCCCC1` [TBI-862, 8-Fluoro-5-(4-trifluoromethoxyphenyl)-3-cyclohexylimino-2-(2-methoxy-3-pyridyl)amino-3,5-dihydrophenazine], 0.088 µg/mL (≈ 0.152 µM); under `Cc1ccc(Nc2cc3nc4ccccc4n(-c4ccc(F)cc4)c-3c/c2=N\C2CCN(C)CC2)cn1` [TBI-901, 5-(4-Fluorophenyl)-3-(N-methyl-4-piperidyl)imino-2-(6-methyl-3-pyridyl)amino-3,5-dihydrophenazine], 0.102 µg/mL (≈ 0.207 µM).

In the case of `Cc1ccc(Nc2cc3nc4ccccc4n(-c4ccc(C(F)(F)F)cc4)c-3c/c2=N\C2CCN(C)CC2)cn1` [TBI-697, 5-(4-Trifluoromethylphenyl)-3-(N-methyl-4-piperidyl)imino-2-(6-methyl-3-pyridyl)amino-3,5-dihydrophenazine], the MIC is 0.053 µg/mL (≈ 0.0977 µM). On the same count and under the same terms, under `FC(F)(F)Oc1ccc(-n2c3c/c(=N\C4CCN(C5CCCC5)CC4)c(Nc4cccnc4)cc-3nc3ccccc32)cc1` [TBI-163, 5-(4-Trifluoromethoxyphenyl)-3-(N-cyclopentyl-4-piperidyl)imino-2-(3-pyridyl)amino-3,5-dihydrophenazine] stands 0.06 µg/mL (≈ 0.1 µM); under `COc1ccc(Nc2cc3nc4ccccc4n(-c4ccc(C(F)(F)F)cc4)c-3c/c2=N\C(C)C)cn1` [TBI-731], 0.348 µg/mL (≈ 0.691 µM).

As for `COCC(COC)/N=c1\cc2n(-c3ccc(OC(F)(F)F)cc3)c3ccccc3nc-2cc1Nc1cccnc1OC` [TBI-372], the MIC was found to be 0.098 µg/mL (≈ 0.169 µM).

`Cc1ncccc1Nc1cc2nc3ccccc3n(-c3ccc(C(F)(F)F)cc3)c-2c/c1=N\C1CCC1` [TBI-734, 5-(4-Trifluoromethylphenyl)-3-cyclobutylimino-2-(2-methyl-3-pyridyl)amino-3,5-dihydrophenazine]: the MIC stood at 0.014 µg/mL (≈ 0.028 µM).

Regarding `COc1ncccc1Nc1cc2nc3ccccc3n(-c3ccc(F)cc3)c-2c/c1=N\C1CCSCC1` [TBI-1042, 5-(4-Fluorophenyl)-3-(4-tetrahydrothiopyranyl)imino-2-(2-methoxy-3-pyridyl)amino-3,5-dihydrophenazine], the MIC amounted to 0.034 µg/mL (≈ 0.0665 µM). Still for that read-out and setting: to `COc1ncccc1Nc1cc2nc3ccccc3n(-c3ccc(OC(F)(F)F)cc3)c-2c/c1=N\CCN1CCOCC1` [TBI-169, 5-(4-Trifluoromethoxyphenyl)-3-(2-morpholinoethyl)imino-2-(2-methoxy-3-pyridyl)amino-3,5-dihydrophenazine] belongs 0.06 µg/mL (≈ 0.102 µM).
